Experiment [1] deals with S. aureus (ATCC 29213). The experiment can be described thus: Bacterial assay: MIC against S. aureus. It counts as cell-based, Staphylococcus aureus. The note with it: for MIC: Staphylococcus aureus, ATCC29213, read-out: minimal inhibitory concentration (MIC); for minimal inhibitory concentration (MIC): S. aureus ATCC 29213.
The subject of experiment [2] is S. pyogenes (ATCC 51339). As to the kind of experiment: Bacterial assay: MIC against S. pyogenes. It counts as cell-based, Streptococcus pyogenes. As to conditions: for MIC: Streptococcus pyogenes, ATCC51339, read-out: minimal inhibitory concentration (MIC).

Values after ≈ are worked out from the molar mass of the structure shown.

As to `CCNC(=O)Nc1nc2cc(-c3cnc(C(C)O)nc3)cc(-c3ncc(F)c(N4CCOCC4)n3)c2s1` (centres unmarked) [Compound 106, 1-ethyl-3-[7-(5-fluoro-4-morpholino-pyrimidin-2-yl)-5-[2-(1-hydroxyethyl)pyrimidin-5-yl]-1,3-benzothiazol-2-yl]urea], the MIC in experiment [1] and in experiment [2] was at most 1 µg/mL throughout.

As to `CCNC(=O)Nc1nc2cc(-c3cncc(C(C)O)c3)cc(-c3ccccn3)c2s1` (centres unmarked) [Compound 197, 1-ethyl-3-[5-[5-(1-hydroxyethyl)-3-pyridyl]-7-(2-pyridyl)-1,3-benzothiazol-2-yl]urea], the MIC in experiment [1] and in experiment [2] was at most 1 µg/mL throughout.

Take `CCNC(=O)Nc1nc2cc(-c3cnc(C(C)(C)O)nc3)cc(-c3cc(CN4C[C@@H](C)O[C@@H](C)C4)ccn3)c2s1` [Compound 164, 1-[7-[4-[[(2R,6S)-2,6-dimethylmorpholin-4-yl]methyl]-2-pyridyl]-5-[2-(1-hydroxy-1-methyl-ethyl)pyrimidin-5-yl]-1,3-benzothiazol-2-yl]-3-ethyl-urea]: the MIC in experiment [1] and in experiment [2] was at most 1 µg/mL in each case.

As to `CCNC(=O)Nc1nc2cc(-c3cnc(C(C)(C)O)nc3)cc(-c3cc(CN4CCC(F)(F)CC4)ccn3)c2s1` [Compound 156, 1-[7-[4-[(4,4-difluoro-1-piperidyl)methyl]-2-pyridyl]-5-[2-(1-hydroxy-1-methyl-ethyl)pyrimidin-5-yl]-1,3-benzothiazol-2-yl]-3-ethyl-urea], the MIC in experiment [1] and in experiment [2] was at most 1 µg/mL each time.

With `CCNC(=O)Nc1nc2cc(-c3cnc(C(C)(C)O)nc3)cc(N3CCOCC3)c2s1` [Compound 151, 1-ethyl-3-[5-[2-(1-hydroxy-1-methyl-ethyl)pyrimidin-5-yl]-7-morpholino-1,3-benzothiazol-2-yl]urea], the MIC in experiment [1] and in experiment [2] was 2 µg/mL (≈ 4.52 µM) each time.

As for `CCNC(=O)Nc1nc2cc(-c3cnc(C(C)(C)OC(=O)CCC(=O)OC)nc3)cc(-c3ccccn3)c2s1` [Compound 20, O4-[1-[5-[2-(ethylcarbamoylamino)-7-(2-pyridyl)-1,3-benzothiazol-5-yl]pyrimidin-2-yl]-1-methyl-ethyl] O1-methyl butanedioate], the figures for the MIC in experiment [1] and in experiment [2] were 2 µg/mL (≈ 3.65 µM) and at most 1 µg/mL, respectively.

Consider `CCNC(=O)Nc1nc2cc(-c3cnc(C(C)(C)O)nc3)c(OCCN3CCOCC3)cc2s1` [Compound 199, 1-ethyl-3-[5-[2-(1-hydroxy-1-methyl-ethyl)pyrimidin-5-yl]-6-(2-morpholinoethoxy)-1,3-benzothiazol-2-yl]urea], for which the MIC in experiment [1] and in experiment [2] was 2 µg/mL (≈ 4.11 µM) each time.

Turning to `CCNC(=O)Nc1nc2cc(-c3cnc(C(C)(C)O)nc3)c(OCCO)cc2s1` [Compound 186, 1-ethyl-3-[6-(2-hydroxyethoxy)-5-[2-(1-hydroxy-1-methyl-ethyl)pyrimidin-5-yl]-1,3-benzothiazol-2-yl]urea], the MIC is 4 µg/mL (≈ 9.58 µM) in experiment [1] and 2 µg/mL (≈ 4.79 µM) in experiment [2].

Turning to `CCNC(=O)Nc1nc2cc(-c3cnc(C(C)(C)O)nc3)cc(-c3ccnc(N4CCC(C)(C(=O)O)CC4)n3)c2s1` [Compound 52, 1-[4-[2-(ethylcarbamoylamino)-5-[2-(1-hydroxy-1-methyl-ethyl)pyrimidin-5-yl]-1,3-benzothiazol-7-yl]pyrimidin-2-yl]-4-methyl-piperidine-4-carboxylic acid], the figures for the MIC in experiment [1] and in experiment [2] were 2 µg/mL (≈ 3.47 µM) and at most 1 µg/mL, respectively.

As to “1-ethyl-3-[7-[4-(4-ethylpiperazin-1-yl)pyridin-2-yl]-5-[2-(1-hydroxy-1-methyl-ethyl)pyrimidin-5-yl]-1,3-benzothiazol-2-yl]urea [Compound 79]”, the “minimal inhibitory concentration (MIC)” value in experiment [1] and in experiment [2] (S. pyogenes ATCC 51339) was 2 µg/mL throughout.

As to `CCNC(=O)Nc1nc2cc(-c3cnc(C(C)O)nc3)cc(-c3cc(CN4CCC5(CC4)COC5)ccn3)c2s1` (centres unmarked) [Compound 112, 1-ethyl-3-[5-[2-(1-hydroxyethyl)pyrimidin-5-yl]-7-[4-(2-oxa-7-azaspiro[3.5]nonan-7-ylmethyl)-2-pyridyl]-1,3-benzothiazol-2-yl]urea], the MIC in experiment [1] and in experiment [2] was at most 1 µg/mL each time.

Turning to `CCNC(=O)Nc1nc2cc(-c3cnc(C(C)O)nc3)c(OCC3CCCO3)cc2s1` (centres unmarked) [Compound 193, 1-ethyl-3-[5-[2-[1-hydroxyethyl]pyrimidin-5-yl]-6-(tetrahydrofuran-2-ylmethoxy)-1,3-benzothiazol-2-yl]urea], the MIC in experiment [1] was at most 1 µg/mL; in experiment [2] it was 2 µg/mL (≈ 4.51 µM).

`CCNC(=O)Nc1nc2cc(-c3cnc(C(C)(C)O)nc3)cc(-c3cc(N4CCC(C(=O)O)CC4)ccn3)c2s1` [Compound 110, 1-[2-[2-(ethylcarbamoylamino)-5-[2-(1-hydroxy-1-methyl-ethyl)pyrimidin-5-yl]-1,3-benzothiazol-7-yl]-4-pyridyl]piperidine-4-carboxylic acid]: the MIC in experiment [1] is 2 µg/mL (≈ 3.56 µM); in experiment [2], at most 1 µg/mL.

As to `CCNC(=O)Nc1nc2cc(-c3cnc(C(C)O)nc3)cc(-c3cc(N4CCC(C)(C(=O)O)CC4)ncn3)c2s1` (centres unmarked) [Compound 109, 1-[6-[2-(ethylcarbamoylamino)-5-[2-(1-hydroxyethyl)pyrimidin-5-yl]-1,3-benzothiazol-7-yl]pyrimidin-4-yl]-4-methyl-piperidine-4-carboxylic acid], the MIC in experiment [1] was 2 µg/mL (≈ 3.55 µM); in experiment [2], at most 1 µg/mL.

For `CCNC(=O)Nc1nc2cc(-c3cnc(C(C)(C)O)nc3)cc(-c3nccc(N4CCN(CCOC)CC4)n3)c2s1` [Compound 107, 1-ethyl-3-[5-[2-(1-hydroxy-1-methyl-ethyl)pyrimidin-5-yl]-7-[4-[4-(2-methoxyethyl)piperazin-1-yl]pyrimidin-2-yl]-1,3-benzothiazol-2-yl]urea], the MIC in experiment [1] and in experiment [2] was at most 1 µg/mL throughout.

In the case of `CCNC(=O)Nc1nc2cc(-c3cnc(C(C)(C)O)nc3)cc(-c3ccc(N4CCC(C)(C(=O)O)CC4)cn3)c2s1` [Compound 45, 1-[6-[2-(ethylcarbamoylamino)-5-[2-(1-hydroxy-1-methyl-ethyl)pyrimidin-5-yl]-1,3-benzothiazol-7-yl]-3-pyridyl]-4-methyl-piperidine-4-carboxylic acid], the results for the MIC in experiment [1] and in experiment [2] were 2 µg/mL (≈ 3.47 µM) and at most 1 µg/mL, respectively.

For `CCNC(=O)Nc1nc2cc(-c3cnc(C(C)O)nc3)cc(-c3cc(CN4CC(C)(O)C4)ccn3)c2s1` (centres unmarked) [Compound 66, 1-ethyl-3-[5-[2-(1-hydroxyethyl)pyrimidin-5-yl]-7-[4-[(3-hydroxy-3-methyl-azetidin-1-yl)methyl]-2-pyridyl]-1,3-benzothiazol-2-yl]urea], the values for the MIC in experiment [1] and in experiment [2] were 2 µg/mL (≈ 3.85 µM) and at most 1 µg/mL, respectively.

Take `CCNC(=O)Nc1nc2cc(-c3cnc(C(C)O)nc3)cc(-c3cc(CN4CCC(C)(O)C4)ccn3)c2s1` (centres unmarked) [Compound 84, 1-ethyl-3-[5-[2-(1-hydroxyethyl)pyrimidin-5-yl]-7-[4-[(3-hydroxy-3-methyl-pyrrolidin-1-yl)methyl]-2-pyridyl]-1,3-benzothiazol-2-yl]urea]: the MIC in experiment [1] and in experiment [2] was at most 1 µg/mL throughout.

With `CCNC(=O)Nc1nc2cc(-c3cnc(C(C)(C)O)nc3)c(OC)cc2s1` [Compound 176, 1-ethyl-3-[5-[2-(1-hydroxy-1-methyl-ethyl)pyrimidin-5-yl]-6-methoxy-1,3-benzothiazol-2-yl]urea], the MIC in experiment [1] and in experiment [2] was at most 1 µg/mL in each case.

In the case of `CCNC(=O)Nc1nc2cc(-c3cnc(C(C)(C)O)nc3)c(OCC3CCCO3)cc2s1` (centres unmarked) [Compound 3, 1-ethyl-3-[5-[2-(1-hydroxy-1-methyl-ethyl)pyrimidin-5-yl]-6-(tetrahydrofuran-2-ylmethoxy)-1,3-benzothiazol-2-yl]urea], the MIC in experiment [1] and in experiment [2] was at most 1 µg/mL in each case.

With `CCNC(=O)Nc1nc2cc(-c3cnc(C(C)(C)O)nc3)cc(-c3nccc(N4CCC(C)(C(=O)O)CC4)n3)c2s1` [Compound 97, 1-[2-[2-(ethylcarbamoylamino)-5-[2-(1-hydroxy-1-methyl-ethyl)pyrimidin-5-yl]-1,3-benzothiazol-7-yl]pyrimidin-4-yl]-4-methyl-piperidine-4-carboxylic acid], the MIC in experiment [1] was 4 µg/mL (≈ 6.94 µM); in experiment [2], at most 1 µg/mL.

As for `CCNC(=O)Nc1nc2cc(-n3cnc(C(C)(C)O)c3)cc(-c3ccccn3)c2s1` [Compound 11, 1-ethyl-3-[5-[4-(1-hydroxy-1-methyl-ethyl)imidazol-1-yl]-7-(2-pyridyl)-1,3-benzothiazol-2-yl]urea], the MIC was 4 µg/mL (≈ 9.47 µM) in experiment [1] and at most 1 µg/mL in experiment [2].

Take `CCNC(=O)Nc1nc2cc(-c3cnc(C(C)(C)O)nc3)cc(-c3cc(C(C)N4CCOCC4)ccn3)c2s1` (centres unmarked) [Compound 33, 1-ethyl-3-[5-[2-(1-hydroxy-1-methyl-ethyl)pyrimidin-5-yl]-7-[4-(1-morpholinoethyl)-2-pyridyl]-1,3-benzothiazol-2-yl]urea]: the MIC in experiment [1] and in experiment [2] was at most 1 µg/mL each time.

Take `CCNC(=O)Nc1nc2cc(-c3cnc(N4CCC(C)(C(=O)O)CC4)nc3)cc(-c3ccc(C(C)(C)O)cn3)c2s1` [Compound 99, 1-[5-[2-(ethylcarbamoylamino)-7-[5-(1-hydroxy-1-methy-ethyl)-2-pyridyl]-1,3-benzothiazol-5-yl]pyrimidin-2-yl]-4-methyl-piperidine-4-carboxylic acid]: the “minimal inhibitory concentration (MIC)” value in experiment [1] is 2 µg/mL (≈ 3.47 µM).

Turning to `CCNC(=O)Nc1nc2cc(-c3cnc(C4(O)CNC4)nc3)cc(-c3ccccn3)c2s1` [Compound 163, 1-ethyl-3-[5-[2-(3-hydroxyazetidin-3-yl)pyrimidin-5-yl]-7-(2-pyridyl)-1,3-benzothiazol-2-yl]urea], the MIC in experiment [2] was determined as 8 µg/mL (≈ 17.9 µM).

`CCNC(=O)Nc1nc2cc(-c3cnc(C(C)O)nc3)c(N3CCOCC3)cc2s1` (centres unmarked) [Compound 194, 1-ethyl-3-[5-[2-[1-hydroxyethyl]pyrimidin-5-yl]-6-morpholino-1,3-benzothiazol-2-yl]urea]: the MIC in experiment [1] came out at 16 µg/mL (≈ 37.3 µM).

For the compound `CCNC(=O)Nc1nc2cc(-c3cnc(C(C)(C)O)nc3)cc(-c3cc(CNCCO)ccn3)c2s1` [Compound 196, 1-ethyl-3-[7-[4-[(2-hydroxyethylamino)methyl]-2-pyridyl]-5-[2-(1-hydroxy-1-methyl-ethyl)pyrimidin-5-yl]-1,3-benzothiazol-2-yl]urea], the MIC in experiment [1] came out at 2 µg/mL (≈ 3.94 µM).

The values above are taken from US20170260178A1 (SPERO GYRASE, INC., priority 2012, published 2017).
